The record followed here is patent US7427488B2, “Purified and isolated platelet calcium channel nucleic acids and polypeptides and therapeutic and screening methods using same” (The University of North Carolina at Chapel Hill, priority 2000, dated 2008).

SMILES strings stand for the structures.

What all share (format): cell-based, human
The subject of experiment [1] is platelet VDCC (thrombin-activated platelets). Description: Flow cytometric analysis of [Ca2+]i in thrombin-activated platelets. As to conditions: for effect on [Ca2+]i (in words): thrombin-activated platelets. As for the experimental part: The conduction of calcium by the VDCC is measured in vitro by measuring changes in cytoplasmic free (ionized) calcium concentrations. Cytoplasmic calcium concentrations are measured by performing flow cytometric analysis with the calcium indicators fluo-3 and fura red as detailed by Novak & Rabinovitch, 1994. Briefly, platelets in whole blood, platelet rich plasma or biological buffers are incubated with esters of fluo-3 and fura red, and then aspirated into the flow cytometric instrument for measurement of calcium-dependent fluorescent changes. Cytoplasmic calcium concentrations are calculated from the ratio or fluo-3 and fura red relative fluorescence intensities. Experiments are performed with increasing doses of VDCC inhibitors with platelets that are in the resting state and subjected to different concentrations of activation agonists and VDCC antagonists and agonists.
(§1) Human blood was collected in acid-citrate-dextrose (ACD, 85 mM trisodium citrate, 70 mM citric acid, 111 mM dextrose). Platelet rich plasma (PRP) was prepared by centrifugation of anticoagulated blood at 25° C. for 8 minutes at 200×g. Platelets were separated from plasma via gel filtration by applying the PRP to a 2.7×10 cm SEPHAROSE™ CL4B column (Amersham Biosciences Corp., Piscataway, N.J., United States of America) equilibrated with modified Tyrode's buffer (145 mM NaCl, 4 mM KCl, 1 mM MgSO4, 6 mM glucose, 10 mM Na-HEPES). Gel filtered platelets were collected and adjusted to a concentration of about 200×10^6 platelets/ml.
PRP (prepared as above) was incubated with 5 μM Fura 2-AM and 5 μM Fluo 3-AM for 20 minutes at 37° C. […] Thrombin was then added to a final concentration of 0.0167, 0.05, 0.167 or 0.5 units/ml and mean cell fluorescence (MCF) of Fura 2 and Fluo 3 was measured at 1 minute on a FACSCAN™ (BD Biosciences, San Jose, Calif., United States of America) flow cytometer as per Novak & Rabinovitch, 1994. The ratio of fluo 3 to fura 2 MCF was calculated and compared to controls for each experimental condition.
In general terms: A flow cytometer gives signals particle by particle.

In experiment [2] the test system is CD62 (PADGEM; P-selectin) on platelet surface. Description: Cell surface markers of platelet activation by flow cytometry: CD62. As to conditions: thrombin-activated platelets. The protocol: as §1
(§2) Platelets were stained for cell surface activation markers according to “Flow Cytometric Analysis of Platelets”. Monoclonal Antibodies Source Book. Vol. Section 2.19 (Becton, Dickinson And Co., Franklin Lakes, N.J., United States of America). Briefly, after treatment with agonists or antagonists as above, cells were activated with 0.167 units/ml thrombin (concentration chosen based on [Ca^2+ ]i studies) for 1 minute in the presence of 1 μM CaCl2, and then stained with the combination of CD61 PerCP and Annexin V FITC, or PAC-1 FITC, CD61 PerCP, and CD62 PE for 15 minutes at room temperature in the dark. […] Cells were analyzed on a FACSCAN™ flow cytometer. Mean cell fluorescence (MCF) was compared to control platelets (thrombin only) for each experimental condition. […]

Experiment [3] relates to PAC1 (activated GPIIb/IIIa) on platelet surface. Kind of experiment: Cell surface markers of platelet activation by flow cytometry: PAC1. As to conditions: thrombin-activated platelets. As for the experimental part:
as §1, §2

The subject of experiment [4] is Annexin-V (phosphatidylserine) on platelet surface. Kind of experiment: Cell surface markers of platelet activation by flow cytometry: Annexin V binding. Conditions: thrombin-activated platelets. The protocol:
as §1, §2

In a further experiment the test system is gel-filtered platelets. Kind of experiment: Platelet aggregation (Chrono-log aggregometer). As to conditions: 50 nM nitrendipine or 5 μM Bay K(+); various concentrations of thrombin. As for the experimental part:
as §1
Gel-filtered platelets at about 200×10^6/ml were incubated for 2 hours with 1:200 MA3-920, 50 nM nitrendipine, 5 μM Bay K(−), or 5 μM Bay K(+). […] Results were analyzed with the AGGROLINK® software (Chrono-log Corp.).

In experiment [5] the test system is platelet surface activation markers. Description: Cell surface markers of platelet activation, overall statement. As to conditions: Annexin V, PAC1, CD62. The protocol: as §1, §2

For the compound `COC(=O)C1=C(C)NC(C)=C([N+](=O)[O-])[C@H]1c1ccccc1C(F)(F)F` [Bay K (−)], in experiment [1] (5 μM, at one minute, thrombin 0.0167 to 0.5 units/ml (FIG. 8)), the “[Ca2+]i” value is listed as “increase”. In addition, the “effect on [Ca2+]i (in words)” value in experiment [1] was “trend towards increased”. Further, in experiment [2], the “decrease in CD62” value came to 4%. Further, the “decrease in PAC1” value in experiment [3] is on record as 9%. For the same compound, the “increase in annexin V binding” value in experiment [4] is recorded as 56%.
For `COC(=O)C1=C(C)NC(C)=C([N+](=O)[O-])[C@@H]1c1ccccc1C(F)(F)F` [Bay K (+)], in the experiment with gel-filtered platelets, the “effect on (the rate of) platelet aggregation (in words)” value is given as “no significant effect”. In experiment [1], the “effect on [Ca2+]i (in words)” value is given as “no significant effect”. In addition, the “effect on platelet surface activation markers (in words)” value in experiment [5] is reported as “no significant effect”.
With `CCOC(=O)C1=C(C)NC(C)=C(C(=O)OC)C1c1cccc([N+](=O)[O-])c1` (stereo not shown) [Nitrendipine, nitrendipine], the “effect on (the rate of) platelet aggregation (in words)” value in the experiment with gel-filtered platelets is recorded as “no effect”. In addition, in experiment [4], the “reduction (decrease) in annexin V binding / PS exposure” value worked out at 22%.
